Measured values as given in patent EP4722201A1, “3-PHENYLISOXAZOLINE-5-CARBOXAMIDE COMPOUND, AND PREPARATION METHOD THEREFOR, HERBICIDAL COMPOSITION THEREOF AND USE THEREOF” (Jiangsu Flag Chemical Industry Co., Ltd, priority 2023, dated 2024).

Experiments:
Type in all cases: in vivo
[1] = test system: Cyperus iria; experiment: Indoor herbicide activity determination, post-emergence (stem and leaf spray at 2-4 leaf stage); conditions: 504 h, determined 21 days later, read-out: Inhibition rate of fresh weight, Cyperus iria; for inhibition at 60 g/ha: 60 g a.i./ha
How it was run: (§1)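 Potted weeds in sandy nutrient soil (pH 6.1, 1% organic matter) were grown in a constant-temperature illuminated room to the 2-4 leaf stage, then given a stem-and-leaf spray. Plants went back to the culture room once the spray had dried in shade. At 21 days, fresh weight inhibition % was calculated relative to untreated control plants.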

[2] = test system: Digitaria sanguinalis; experiment: as above; conditions: 504 h, determined 21 days later, read-out: Inhibition rate of fresh weight, Digitaria sanguinalis; for inhibition at 60 g/ha: 60 g a.i./ha
How it was run: as §1

[3] = test system: Eclipta prostrata; experiment: as above; conditions: 504 h, determined 21 days later, read-out: Inhibition rate of fresh weight, Eclipta prostrata; for inhibition at 60 g/ha: 60 g a.i./ha
How it was run: as §1

[4] = test system: Alopecurus japonicus; experiment: Indoor herbicide activity determination, Seed Treatment; pre-emergence (soil spray); conditions: Dosage 240 g a.i./ha
How it was run: (§2)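 Sow seeds into soil-filled 7 cm pots (sandy, pH 6.1, 1% organic matter) and cover them. Water from beneath, then incubate 24 h in a lit, temperature-controlled chamber. Spray the soil in a traveling tower, let it dry in shade, grow on 21 days, and weigh fresh biomass against controls.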

[5] = test system: Alopecurus myosuroides; experiment: as above; conditions: Dosage 240 g a.i./ha
How it was run: as §2

[6] = test system: Eleusine indica; experiment: as above; conditions: Dosage 240 g a.i./ha
How it was run: as §2

[7] = test system: Leptochloa chinensis; experiment: as above; conditions: Dosage 240 g a.i./ha
How it was run: as §2

[8] = test system: Lolium multiflorum; experiment: as above; conditions: Dosage 240 g a.i./ha
How it was run: as §2

[9] = test system: Aegilops tauschii; experiment: as above; conditions: 60 g a.i./ha, read-out: Herbicidal activities (inhibition rate) Aegilops tauschii
How it was run: as §2

[10] = test system: Cyperus iria; experiment: as above; conditions: 60 g a.i./ha, read-out: Herbicidal activities (inhibition rate) Cyperus iria
How it was run: as §2

[11] = test system: Digitaria sanguinalis; experiment: as above; conditions: 60 g a.i./ha, read-out: Herbicidal activities (inhibition rate) Digitaria sanguinalis
How it was run: as §2

[12] = test system: Eclipta prostrata; experiment: as above; conditions: 60 g a.i./ha, read-out: Herbicidal activities (inhibition rate) Eclipta prostrata
How it was run: as §2

## COC(=O)[C@H]1C[C@@H](NC(=O)C2(C(F)(F)F)CC(c3cc(F)cc(OC(F)(F)F)c3)=NO2)C1 (relative stereo) [I-251]
[1]
  inhibition at 60 g/ha: 80 to 100%
[2]
  inhibition at 60 g/ha: 80 to 100%
[3]
  inhibition at 60 g/ha: 60 to 80%
[4]
  Herbicidal activities, Alopecurus japonicus (inhibition rate class): A (A indicates that the inhibition rate was greater than or equal to 80% to 100%)
[5]
  Herbicidal activities, Alopecurus myosuroides (inhibition rate class): A (A indicates that the inhibition rate was greater than or equal to 80% to 100%)
[6]
  Herbicidal activities, Eleusine indica (inhibition rate class): A (A indicates that the inhibition rate was greater than or equal to 80% to 100%)
[7]
  Herbicidal activities, Leptochloa chinensis (inhibition rate class): A (A indicates that the inhibition rate was greater than or equal to 80% to 100%)
[8]
  Herbicidal activities, Lolium multiflorum (inhibition rate class): A (A indicates that the inhibition rate was greater than or equal to 80% to 100%)

## O=C(N[C@H]1C[C@@H](C(=O)O)C1)C1(C(F)(F)F)CC(c2cccc(F)c2)=NO1 (relative stereo) [I-268]
[1]
  inhibition at 60 g/ha: 80 to 100%
[2]
  inhibition at 60 g/ha: 80 to 100%
[3]
  inhibition at 60 g/ha: 40 to 60%
[4]
  Herbicidal activities, Alopecurus japonicus (inhibition rate class): A (A indicates that the inhibition rate was greater than or equal to 80% to 100%)
[5]
  Herbicidal activities, Alopecurus myosuroides (inhibition rate class): A (A indicates that the inhibition rate was greater than or equal to 80% to 100%)
[6]
  Herbicidal activities, Eleusine indica (inhibition rate class): A (A indicates that the inhibition rate was greater than or equal to 80% to 100%)
[7]
  Herbicidal activities, Leptochloa chinensis (inhibition rate class): A (A indicates that the inhibition rate was greater than or equal to 80% to 100%)
[8]
  Herbicidal activities, Lolium multiflorum (inhibition rate class): A (A indicates that the inhibition rate was greater than or equal to 80% to 100%)

## COC(=O)[C@H]1C[C@@H](NC(=O)C2(C(F)(F)F)CC(c3cccc(F)c3)=NO2)C1 (relative stereo) [I-270]
[1]
  inhibition at 60 g/ha: 80 to 100%
[2]
  inhibition at 60 g/ha: 80 to 100%
[3]
  inhibition at 60 g/ha: 40 to 60%
[4]
  Herbicidal activities, Alopecurus japonicus (inhibition rate class): A (A indicates that the inhibition rate was greater than or equal to 80% to 100%)
[5]
  Herbicidal activities, Alopecurus myosuroides (inhibition rate class): A (A indicates that the inhibition rate was greater than or equal to 80% to 100%)
[6]
  Herbicidal activities, Eleusine indica (inhibition rate class): A (A indicates that the inhibition rate was greater than or equal to 80% to 100%)
[7]
  Herbicidal activities, Leptochloa chinensis (inhibition rate class): A (A indicates that the inhibition rate was greater than or equal to 80% to 100%)
[8]
  Herbicidal activities, Lolium multiflorum (inhibition rate class): A (A indicates that the inhibition rate was greater than or equal to 80% to 100%)

## COC(=O)[C@H]1C[C@@H](NC(=O)C2(C(C)(F)F)CC(c3cc(F)cc(F)c3)=NO2)C1 (relative stereo) [I-347]
[1]
  inhibition at 60 g/ha: 80 to 100%
[2]
  inhibition at 60 g/ha: 60 to 80%
[3]
  inhibition at 60 g/ha: 40 to 60%
[4]
  Herbicidal activities, Alopecurus japonicus (inhibition rate class): A (A indicates that the inhibition rate was greater than or equal to 80% to 100%)
[5]
  Herbicidal activities, Alopecurus myosuroides (inhibition rate class): A (A indicates that the inhibition rate was greater than or equal to 80% to 100%)
[6]
  Herbicidal activities, Eleusine indica (inhibition rate class): A (A indicates that the inhibition rate was greater than or equal to 80% to 100%)
[7]
  Herbicidal activities, Leptochloa chinensis (inhibition rate class): A (A indicates that the inhibition rate was greater than or equal to 80% to 100%)
[8]
  Herbicidal activities, Lolium multiflorum (inhibition rate class): A (A indicates that the inhibition rate was greater than or equal to 80% to 100%)

## C=C(F)C1(C(=O)N[C@H]2C[C@@H](C(=O)OC)C2)CC(c2cc(F)cc(F)c2)=NO1 (relative stereo) [I-356]
[1]
  inhibition at 60 g/ha: 80 to 100%
[2]
  inhibition at 60 g/ha: 60 to 80%
[3]
  inhibition at 60 g/ha: 40 to 60%
[4]
  Herbicidal activities, Alopecurus japonicus (inhibition rate class): A (A indicates that the inhibition rate was greater than or equal to 80% to 100%)
[5]
  Herbicidal activities, Alopecurus myosuroides (inhibition rate class): A (A indicates that the inhibition rate was greater than or equal to 80% to 100%)
[6]
  Herbicidal activities, Eleusine indica (inhibition rate class): A (A indicates that the inhibition rate was greater than or equal to 80% to 100%)
[7]
  Herbicidal activities, Leptochloa chinensis (inhibition rate class): A (A indicates that the inhibition rate was greater than or equal to 80% to 100%)
[8]
  Herbicidal activities, Lolium multiflorum (inhibition rate class): A (A indicates that the inhibition rate was greater than or equal to 80% to 100%)

## COC(=O)[C@@H]1CC[C@H](NC(=O)[C@@]2(C(F)(F)F)CC(c3cc(F)cc(F)c3)=NO2)C1 [CK3, reference compound]
[1]; 30 g a.i./ha
  inhibition at 30 g/ha: 40 to 60%
[2]; 30 g a.i./ha
  inhibition at 30 g/ha: 40 to 60%
[3]; 30 g a.i./ha
  inhibition at 30 g/ha: < 20%
[9]
  inhibition at 60 g/ha: 40 to 60%
[10]
  inhibition at 60 g/ha: 40 to 60%
[11]
  inhibition at 60 g/ha: 60 to 80%
[12]
  inhibition at 60 g/ha: 60 to 80%
